Laboratory results published in patent US20210038559A1, “CANNABINOIDS AND DERIVATIVES FOR PROMOTING IMMUNOGENICITY OF TUMOR AND INFECTED CELLS” (priority 2018, published 2021).
Like-named read-outs stand apart in the source and are kept apart here.

Columns and labels:
[1] = tested on: MHC-I expression on COLO 205 cells; experiment: Phytocannabinoid MHC-I induction on COLO 205 cells, 0-100 μM, 48 hours; conditions: for Fold Induction: MHC-I expression on COLO 205 cells, relative to control cells treated only with buffer; for MHC-I expression induction: COLO 205, endogenous cannabinoids
Method: FIG. 4. Cell surface MHC class I expression was measured by flow cytometry (MFI).
Phytocannabinoids were tested for MHC-I-inducing activity on COLO 205 cells. Each cannabinoid was tested at a concentration range of 0-100 μM. […] “ND” indicates not determined.

[2] = tested on: MHC-I expression by COLO 205 cells; experiment: cells; assay type: cell-based, human; conditions: for fold induction at 35 µM: Homo sapiens, COLO 205, 48 h, MHC-I expression, COLO 205 cells, compounds at 35 μM, 48 hours, flow cytometry (W6/32), read-out: Induction Fold
Method: A panel of synthetic cannabinoids (Cayman Chemical, #9002891) was tested for MHC class I-inducing capability in COLO 205 cells as described above. COLO 205 cells were treated with the compounds at a concentration of 35 μM and evaluated for cell surface MHC class I expression after 48 hours. Cells were harvested, stained with MHC-I mAb W6/32 (Thermo Fisher). MHC-I expression was determined by flow cytometry.

[3] = tested on: MHC class I expression on COLO 205 cells; experiment: MHC class I expression on COLO 205 cells, 24 hours, flow cytometry (W6/32)
Method: FIG. 2A-2F. […] Cells were treated for 24 hours and cell surface MHC class I expression was measured by flow cytometry.
Cannabigerol was also tested for its capacity to induce MHC class I expression in a human colorectal carcinoma cell line, COLO 205. The cells were treated with either 25 μM or 50 μM cannabigerol for 24 hours. Fluorophor (Alexa Fluor 488)-conjugated W6/32 antibody (Thermo Fisher) was used in a flow cytometry assay to quantitate MHC class I expression. […] Cannabigerol is only one of many cannabinoid-like molecules with potential biopharmaceutical activity. […] COLO 205 cells were treated with up to 40 μM of the cannabinoids 1-5 presented in Tables 1 and 2 and evaluated for cell surface MHC class I expression as described above for cannabigerol.

[4] = induction of MHC-I expression on COLO 205 cells, 0-100 μM, 48 hours

Row | Molecule | Fold Induction ([1]; 0-100 μM, 48 hours) [Fold] | fold induction at 35 µM [2] | also measured
1 | CCCCCc1cc(OC)c2c(c1)OC(C)(C)c1ccc(C)cc1-2 [Example 387, 1-methoxy-6,6,9-trimethyl-3-pentyl-6H-dibenzo[b,d]pyran] | 2.3 | – | EC50 ([1]; Homo sapiens, COLO 205, 48 h): 30 µM
2 | CCCCCc1cc2c3c(c1)OC(C)(C)C1CCC(C)(CC31)O2 (stereo not drawn) [Example 382, (6aα,9β,10aα)-6a,7,8,9,10,10a-hexahydro-6,6,9-trimethyl-3-pentyl-1,9-epoxy-6H-dibenzo[b,d]pyran] | 1.3 | – | –
3 | C=C(C)[C@@H]1CCC(C)=C[C@H]1c1c(O)cc(CCCCC)cc1O [cannabidiol (CBD)] | – | – | EC50 ([1]; read-out: EC50 of MHC-I induction, COLO 205, 48 hours): 10 µM
4 | CCCCC/C=C\C/C=C\C/C=C\C/C=C\CCCC(=O)NCCO [AEA, N-arachidonoylethanolamine, reference compound] | – | – | MHC-I expression induction [1]: do not induce MHC-I expression
5 | CCCCC/C=C\C/C=C\C/C=C\C/C=C\CCCC(=O)OC(CO)CO [Example 2-AG, 2-Arachidonoylglycerol, reference compound] | – | – | MHC-I expression induction [1]: do not induce MHC-I expression
6 | CC(C)=CCC/C(C)=C/Cc1c(O)cc(C)cc1O [Example 388, 2-[(2E)-3,7-dimethyl-2,6-octadien-1-yl]-5-methyl-1,3-benzenediol] | 2.7 | – | EC50 ([1]; Homo sapiens, COLO 205, 48 h): 36 µM
7 | CCCc1cc(O)c2c(c1)OC(C)(CCC=C(C)C)C=C2 (centres unmarked) [Example 381, 2-methyl-2-(4-methylpent-3-enyl)-7-propylchromen-5-ol] | 3.3 | – | EC50 ([1]; Homo sapiens, COLO 205, 48 h): 32 µM
8 | C=C(C)[C@@H]1CCC(C)=C[C@H]1c1c(O)cc(CCC)cc1O [Example 386, 2-[(1R,6R)-3-methyl-6-(1-methylethenyl)-2-cyclohexen-1-yl]-5-propyl-1,3-benzenediol] | 5.5 | – | EC50 ([1]; Homo sapiens, COLO 205, 48 h): 19 µM
9 | CCCc1cc(O)c2c(c1)OC(C)(C)c1ccc(C)cc1-2 [Example 385, 6,6,9-trimethyl-3-propyl-6H-dibenzo[b,d]pyran-1-ol] | 3.9 | – | EC50 ([1]; Homo sapiens, COLO 205, 48 h): 20 µM
10 | CCCCCc1cc(O)c2c(c1)OC(C)(C)[C@@H]1CC=C(C)C[C@@H]21 [Example 383, 6aR,7,10,10aR-tetrahydro-6,6,9-trimethyl-3-pentyl-6H-dibenzo[b,d]pyran-1-ol] | 4.1 | – | EC50 [1, 4]: 27 µM
11 | CCCCCc1cc(O)c2c(c1)OC1(C)CCC3C1C2C3(C)C [Example 390, (1aS,1a^1R,3aR,8bR)-1,1,3a-trimethyl-6-pentyl-1a,1a^1,2,3,3a,8b-hexahydro-1H-4-oxabenzo[f]cyclobuta[cd]inden-8-ol] | 4.2 | – | EC50 ([1]; Homo sapiens, COLO 205, 48 h): 20 µM
12 | CCCCCc1cc(O)c2c(c1)OC(C)(C)[C@@H]1CCC(C)=C[C@@H]21 [Example 384, 6aR,7,8,10aR-tetrahydro-6,6,9-trimethyl-3-pentyl-6H-dibenzo[b,d]pyran-1-ol] | 6.1 | – | EC50 [1, 4]: 30 µM
13 | CC(C)=CCC/C(C)=C/Cc1c(O)cc(C)c(C(=O)O)c1O [Example 389, 3-[(2E)-3,7-dimethyl-2,6-octadien-1-yl]-2,4-dihydroxy-6-methyl-benzoic acid] | 2.6 | – | –
14 | CCCCCn1cc(C(=O)c2ccc(Cl)c3ccccc23)c2ccccc21 [Example 223, (4-chloro-1-naphthalenyl)(1-pentyl-1H-indol-3-yl)-methanone] | – | 1.76 | –
15 | O=C(Oc1cccc2cccnc12)c1nn(Cc2ccc(F)cc2)c2ccccc12 [Example 276, quinolin-8-yl 1-(4-fluorobenzyl)-1H-indazole-3-carboxylate] | – | 1.51 | –
16 | CC[C@H](C)[C@H](NC(=O)c1nn(CCCCCF)c2ccccc12)C(N)=O (single isomer, unassigned) [Example 298] | – | 1.42 | –

Row | Molecule | Fold Induction ([1]; 0-100 μM, 48 hours) [Fold] | fold induction at 35 µM [2] | also measured
17 | O=C(c1cccc2ccccc12)c1nn(CCCCCBr)c2ccccc12 [Example 97, (1-(5-bromopentyl)-1H-indazol-3-yl)(naphthalen-1-yl)methanone] | – | 2.44 | –
18 | CCCCCn1cc(C(=O)c2cccc3c(Cl)cccc23)c2ccccc21 [Example 238, (5-chloronaphthalen-1-yl)(1-pentyl-1H-indol-3-yl)methanone] | – | 1.7 | –
19 | CN(C)C(=O)n1nnnc1Cc1ccc(-c2ccccc2)cc1 [Example 288, 5-([1,1′-biphenyl]-4-ylmethyl)-N,N-dimethyl-1H-tetrazole-1-carboxamide] | – | 1.45 | –
20 | O=C(c1cccc2ccccc12)c1cn(CCN2CCOCC2)c2ccccc12 [Example 57, [1-[2-(4-morpholinyl)ethyl]-1H-indol-3-yl]-1-naphthalenyl-methanone] | – | – | Induction Fold [2]: 2.89 Fold
21 | O=C(Nc1cccc2cccnc12)c1cn(CCCCCF)c2ccccc12 [Example 208, 1-(5-fluoropentyl)-N-(quinolin-8-yl)-1H-indole-3-carboxamide] | – | 1.84 | –
22 | CCCCn1cc(C(=O)c2c(C)ccc3ccccc23)c2ccccc21 [Example 22, (1-butyl-1H-indol-3-yl)(2-methylnaphthalen-1-yl)methanone] | – | 3.84 | –
23 | CC(C)[C@H](NC(=O)c1nn(CC2CCCCC2)c2ccccc12)C(N)=O [Example 67, N-[(1S)-1-(aminocarbonyl)-2-methylpropyl]-1-(cyclohexylmethyl)-1H-indazole-3-carboxamide] | – | 2.75 | –
24 | NC(=O)[C@H](Cc1ccccc1)NC(=O)c1nn(CC2CCCCC2)c2ccccc12 [Example 29, N-[(1S)-2-amino-2-oxo-1-(phenylmethyl)ethyl]-1-(cyclohexylmethyl)-1H-Indazole-3-carboxamide] | – | 3.41 | –
25 | CCCCCCC(C)(C)c1cc(O)c2c(c1)OC(C)(C)[C@H]1CC=C(CO)C[C@H]21 [Example 360, 3-(1,1-dimethylheptyl)-6aS,7,10,10aS-tetrahydro-1-hydroxy-6,6-dimethyl-6H-dibenzo[b,d]pyran-9-methanol] | – | 0.96 | –
26 | CC(F)CCCn1cc(C(=O)Oc2cccc3cccnc23)c2ccccc21 (centres unmarked) [Example 102, quinolin-8-yl 1-(4-fluoropentyl)-1H-indole-3-carboxylate] | – | 2.41 | –
27 | CCCC(F)Cn1cc(C(=O)Oc2cccc3cccnc23)c2ccccc21 (centres unmarked) [Example 83, quinolin-8-yl 1-(2-fluoropentyl)-1H-indole-3-carboxylate] | – | 2.54 | –
28 | CC(C)(C)Cn1cc(C(=O)c2cccc3ccccc23)c2ccccc21 [Example 49, naphthalen-1-yl(1-neopentyl-1H-indol-3-yl)-methanone] | – | 3 | –
29 | O=C(Oc1cccc2cccnc12)c1cn(CC2CCCCC2)c2ccccc12 [Example 38, 1-(cyclohexylmethyl)-8-quinolinyl ester-1H-indole-3-carboxylic acid] | – | – | Induction Fold [2]: 3.15 Fold
30 | COc1ccc(C(=O)c2cn(CCN3CCOCC3)c3ccccc23)c2ccccc12 [Example 21, (4-methoxy-1-naphthalenyl)[1-[2-(4-morpholinyl)ethyl]-1H-indol-3-yl]-methanone] | – | 3.85 | –
31 | Interferon-γ: a natural cytokine known to stimulate MHC class I expression in many mammalian cells (protein, UniProt P01579 24-161, looked up) Interferon gamma: QDPYVKEAENLKKYFNAGHSDVADNGTLFLGILKNWKEESDRKIMQSQIVSFYFKLFKNFKDDQSIQKSVETIKEDMNVKFFNSNKKKRDDFEKLTNYSVTDLNVQRKAIHELIQVMAELSPAAKTGKRKRSQMLFRG | – | – | Fold Induction ([3]; COLO 205, 0.004 ng/mL): 0.98; Fold Induction ([3]; COLO 205, 0.040 ng/mL): 2.07; Fold Induction ([3]; COLO 205, 1.000 ng/mL): 3.99
